Experimental data published in article PMC11969009 (Nature Communications, 2025).
pEC50, pIC50, pKd: −log10 of the molar value. ≈ marks a conversion by molar mass, not a printed value. Where “and” joins values, the source holds several entries; their conditions need not be identical. Identical values can stand only once. Entries after “also recorded” stand apart in the source; their conditions may differ. Like-named read-outs stand apart in the source and are kept apart here.

How the values were obtained:
[1] = tested on: SARS-CoV-2 clinical isolate VIC001; type: cell-based
CYP2C19 [2] = target: T1, CYP2C19 (Homo sapiens, UniProt P33261); assay: biochemical
[3] = tested on: SARS-CoV-2 clinical isolate VIC001; assay: microbe, parasite or virus in culture; type: cell-based
in vitro [4] = settings: human, microsomes, pH 7.4
CYP3A4/5 [5] = assay: in vitro; settings: human, microsomes
SARS-CoV-2 PLpro [6] = target: T2, SARS-CoV-2 PLpro (Severe acute respiratory syndrome coronavirus 2, UniProt P0DTD1); assay: biochemical
physchem [7] = settings: kinetic from dmso stock
CYP2C8 [8] = target: T3, CYP2C8 (Homo sapiens, UniProt P10632); settings: 20 µM
CYP2C9 [9] = target: T4, CYP2C9 (Homo sapiens, UniProt P11712); assay: biochemical
CYP2B6 [10] = target: T5, CYP2B6 (Homo sapiens, UniProt P20813)
CYP1A2 [11] = target: T6, CYP1A2 (Homo sapiens, UniProt P05177); assay: biochemical
in vitro [12] = settings: human, hepatocytes, pH 7.4
SARS-CoV-2 P21 [13] = tested on: SARS-CoV-2 P21; design: species or system C57BL/6 (WT) mice; Macrophages: unit not given here; settings: mouse, in vivo
CYP2B6 [14] = target: T5, CYP2B6; assay: biochemical
SARS-CoV-2 PLpro [15] = target: T2, SARS-CoV-2 PLpro; assay: biochemical; type: binding
CYP2C9 [16] = target: T4, CYP2C9; assay: in vitro; settings: microsomes, pH 7.4
CYP2D6 = CYP2D6 (Homo sapiens, UniProt P10635); assay: biochemical
in vitro [17] = settings: both, human, plasma, pH 7.4
physchem [18] = settings: pH 7.4
SARS-CoV-2 P21 [19] = tested on: SARS-CoV-2 P21; design: species or system C57BL/6 (WT) mice; settings: mouse, in vivo
SARS-CoV-2 P2 strain = tested on: SARS-CoV-2 P2 strain; design: species or system C57BL/6 (WT) mice; settings: mouse, in vivo
in vitro [20] = settings: mouse, hepatocytes, pH 7.4
CYP2C8 [21] = target: T3, CYP2C8; assay: biochemical
SARS-CoV-2 PLpro [22] = target: T2, SARS-CoV-2 PLpro; assay: cell-based; type: cell-based
SARS-CoV-2 P21 [23] = tested on: SARS-CoV-2 P21; design: species or system C57BL/6 (WT) mice; settings: mouse, in vivo; remark: listed apart in the source
CYP2C19 [24] = target: T1, CYP2C19
hERG = hERG (Homo sapiens, UniProt Q12809); assay: biochemical
in vitro [25] = settings: mouse, microsomes, pH 7.4
in vitro [26] = settings: both, CD1, mouse, plasma, pH 7.4
CYP3A4/5 [27] = assay: in vitro; settings: human, microsomes; remark: listed apart in the source
in vivo = settings: male, C57BL/6, mouse, po, 100 mg/kg
CYP1A2 [28] = target: T6, CYP1A2

T5 sequence (P20813 whole entry): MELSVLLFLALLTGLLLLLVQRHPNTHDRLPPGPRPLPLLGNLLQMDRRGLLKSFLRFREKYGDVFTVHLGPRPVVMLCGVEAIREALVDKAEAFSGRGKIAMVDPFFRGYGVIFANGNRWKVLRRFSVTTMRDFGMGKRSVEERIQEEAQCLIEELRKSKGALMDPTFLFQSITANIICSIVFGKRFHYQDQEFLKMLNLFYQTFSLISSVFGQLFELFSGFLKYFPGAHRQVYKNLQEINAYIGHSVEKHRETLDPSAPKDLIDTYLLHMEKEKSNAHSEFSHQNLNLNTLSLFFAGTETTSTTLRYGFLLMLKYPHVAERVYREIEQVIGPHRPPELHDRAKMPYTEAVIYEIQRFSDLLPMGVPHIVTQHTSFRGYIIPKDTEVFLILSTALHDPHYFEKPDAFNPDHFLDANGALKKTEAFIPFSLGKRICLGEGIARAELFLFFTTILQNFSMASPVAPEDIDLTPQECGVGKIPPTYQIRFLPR
T6 sequence (P05177 whole entry): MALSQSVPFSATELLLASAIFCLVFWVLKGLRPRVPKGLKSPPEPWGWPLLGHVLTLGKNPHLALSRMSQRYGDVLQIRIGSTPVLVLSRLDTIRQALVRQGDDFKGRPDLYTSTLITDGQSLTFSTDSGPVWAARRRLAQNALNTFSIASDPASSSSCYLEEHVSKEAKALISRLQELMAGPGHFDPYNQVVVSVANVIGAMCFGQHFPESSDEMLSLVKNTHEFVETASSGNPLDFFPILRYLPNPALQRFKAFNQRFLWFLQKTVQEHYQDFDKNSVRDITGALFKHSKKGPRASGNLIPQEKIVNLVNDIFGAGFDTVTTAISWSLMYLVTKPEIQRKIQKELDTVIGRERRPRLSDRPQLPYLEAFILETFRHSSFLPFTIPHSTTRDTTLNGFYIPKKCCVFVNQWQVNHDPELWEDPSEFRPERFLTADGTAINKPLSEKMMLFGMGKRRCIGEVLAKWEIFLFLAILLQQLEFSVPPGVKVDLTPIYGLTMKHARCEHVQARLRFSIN
T3 sequence (P10632 whole entry): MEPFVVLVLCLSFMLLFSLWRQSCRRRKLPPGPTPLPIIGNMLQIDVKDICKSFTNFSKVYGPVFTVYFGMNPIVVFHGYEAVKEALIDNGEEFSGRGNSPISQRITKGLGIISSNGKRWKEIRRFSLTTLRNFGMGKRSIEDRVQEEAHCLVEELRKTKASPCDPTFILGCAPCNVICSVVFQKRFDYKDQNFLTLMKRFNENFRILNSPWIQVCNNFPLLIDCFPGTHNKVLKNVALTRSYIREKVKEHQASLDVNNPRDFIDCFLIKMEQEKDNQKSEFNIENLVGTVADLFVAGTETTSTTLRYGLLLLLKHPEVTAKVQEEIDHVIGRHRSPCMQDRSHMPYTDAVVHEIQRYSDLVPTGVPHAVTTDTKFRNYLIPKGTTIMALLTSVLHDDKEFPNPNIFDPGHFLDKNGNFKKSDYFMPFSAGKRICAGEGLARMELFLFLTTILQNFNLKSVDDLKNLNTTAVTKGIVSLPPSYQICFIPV
T4 sequence (P11712 whole entry): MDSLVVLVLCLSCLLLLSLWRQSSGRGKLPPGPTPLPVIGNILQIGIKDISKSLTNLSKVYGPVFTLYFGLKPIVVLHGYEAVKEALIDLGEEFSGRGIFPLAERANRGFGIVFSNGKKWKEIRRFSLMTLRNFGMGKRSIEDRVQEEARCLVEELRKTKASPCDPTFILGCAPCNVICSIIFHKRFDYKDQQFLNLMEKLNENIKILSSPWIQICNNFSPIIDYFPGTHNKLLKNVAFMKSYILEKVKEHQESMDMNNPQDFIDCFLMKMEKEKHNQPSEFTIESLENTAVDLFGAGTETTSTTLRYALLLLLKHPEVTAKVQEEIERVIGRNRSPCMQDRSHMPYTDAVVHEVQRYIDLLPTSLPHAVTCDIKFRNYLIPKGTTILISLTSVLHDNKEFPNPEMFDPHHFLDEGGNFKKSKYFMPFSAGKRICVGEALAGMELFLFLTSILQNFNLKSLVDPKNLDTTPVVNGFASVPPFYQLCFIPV
T1 sequence (P33261 whole entry): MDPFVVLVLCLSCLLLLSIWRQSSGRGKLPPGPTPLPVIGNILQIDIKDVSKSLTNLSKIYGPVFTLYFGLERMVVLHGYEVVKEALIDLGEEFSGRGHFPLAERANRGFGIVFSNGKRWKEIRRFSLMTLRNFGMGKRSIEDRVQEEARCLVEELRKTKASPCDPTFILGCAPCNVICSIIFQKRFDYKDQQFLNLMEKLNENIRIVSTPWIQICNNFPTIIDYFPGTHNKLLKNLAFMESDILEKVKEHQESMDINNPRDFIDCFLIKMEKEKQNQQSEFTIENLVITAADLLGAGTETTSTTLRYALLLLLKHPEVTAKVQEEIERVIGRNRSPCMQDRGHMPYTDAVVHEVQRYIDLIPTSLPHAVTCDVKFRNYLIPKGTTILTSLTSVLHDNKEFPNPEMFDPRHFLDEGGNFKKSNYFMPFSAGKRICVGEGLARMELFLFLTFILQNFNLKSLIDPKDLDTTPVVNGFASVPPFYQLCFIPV
Sequence of hERG (Q12809 whole entry): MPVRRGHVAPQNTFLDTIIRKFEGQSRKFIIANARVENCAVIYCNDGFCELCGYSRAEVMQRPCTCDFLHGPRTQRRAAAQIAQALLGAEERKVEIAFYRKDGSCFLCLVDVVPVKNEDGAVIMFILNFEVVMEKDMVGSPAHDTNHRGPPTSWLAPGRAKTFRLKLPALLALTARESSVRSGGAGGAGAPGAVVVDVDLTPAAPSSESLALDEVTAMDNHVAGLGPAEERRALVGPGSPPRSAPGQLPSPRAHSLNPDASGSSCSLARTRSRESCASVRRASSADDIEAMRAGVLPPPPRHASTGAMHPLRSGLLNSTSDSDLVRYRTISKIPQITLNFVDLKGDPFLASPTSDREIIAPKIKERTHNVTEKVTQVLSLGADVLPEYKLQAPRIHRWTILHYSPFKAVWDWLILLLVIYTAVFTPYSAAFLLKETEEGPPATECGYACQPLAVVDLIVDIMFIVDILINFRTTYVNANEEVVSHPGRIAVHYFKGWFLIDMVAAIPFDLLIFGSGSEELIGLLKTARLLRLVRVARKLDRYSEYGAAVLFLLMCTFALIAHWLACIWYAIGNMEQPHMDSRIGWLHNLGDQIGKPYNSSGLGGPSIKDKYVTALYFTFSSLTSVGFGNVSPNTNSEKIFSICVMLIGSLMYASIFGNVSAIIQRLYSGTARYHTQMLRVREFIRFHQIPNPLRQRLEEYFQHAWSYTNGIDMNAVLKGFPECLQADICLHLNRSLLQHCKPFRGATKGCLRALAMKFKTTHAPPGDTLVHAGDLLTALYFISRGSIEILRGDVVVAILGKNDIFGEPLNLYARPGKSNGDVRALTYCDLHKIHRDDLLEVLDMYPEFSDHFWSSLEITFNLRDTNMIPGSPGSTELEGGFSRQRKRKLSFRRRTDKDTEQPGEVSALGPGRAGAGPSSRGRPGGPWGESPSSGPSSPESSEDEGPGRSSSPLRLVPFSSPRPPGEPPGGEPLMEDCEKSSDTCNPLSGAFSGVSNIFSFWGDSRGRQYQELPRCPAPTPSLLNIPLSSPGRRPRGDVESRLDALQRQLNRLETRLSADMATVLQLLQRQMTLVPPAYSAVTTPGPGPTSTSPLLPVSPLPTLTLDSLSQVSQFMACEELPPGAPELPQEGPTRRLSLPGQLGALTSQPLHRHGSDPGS
Sequence of CYP2D6 (P10635 whole entry): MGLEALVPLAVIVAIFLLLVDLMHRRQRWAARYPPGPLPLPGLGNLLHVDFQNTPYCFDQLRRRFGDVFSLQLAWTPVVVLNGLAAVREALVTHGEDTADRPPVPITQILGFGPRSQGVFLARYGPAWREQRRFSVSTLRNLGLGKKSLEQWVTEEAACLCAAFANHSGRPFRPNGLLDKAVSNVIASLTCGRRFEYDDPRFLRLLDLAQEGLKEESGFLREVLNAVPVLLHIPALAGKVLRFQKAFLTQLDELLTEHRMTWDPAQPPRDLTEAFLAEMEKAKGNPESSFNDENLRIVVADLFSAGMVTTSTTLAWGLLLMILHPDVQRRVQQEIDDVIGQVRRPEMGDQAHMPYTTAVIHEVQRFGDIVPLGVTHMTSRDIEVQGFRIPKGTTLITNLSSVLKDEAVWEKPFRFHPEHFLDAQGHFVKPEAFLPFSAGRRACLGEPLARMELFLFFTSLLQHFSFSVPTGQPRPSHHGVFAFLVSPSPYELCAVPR

SMILES: CCC(CC)COC(=O)[C@H](C)N[P@](=O)(OC[C@H]1O[C@@](C#N)(c2ccc3c(N)ncnn23)[C@H](O)[C@@H]1O)Oc1ccccc1 [Remdesivir, remdesivir]
- TCID50 [1]: 15.3

SMILES: CCON=C(c1ccc2cc(OC)ccc2c1)C1CCCN(C2CCC(O)CC2)C1 (stereo not drawn) [WEHI-P8]
- pIC50 (CYP2C19 [2]): < 4.70
- Ext Data Fig 6e dose response, normalised (0 µM = 100) ([3]; 0.01 µM): 105.19 and 94.34 and 104.76 and 91.8 and 114.493 and 94.2029
- Ext Data Fig 6e dose response, normalised (0 µM = 100) ([3]; 0.02 µM): 94.81 and 103.77 and 95.24 and 103.28 and 113.043 and 95.6522
- Ext Data Fig 6e dose response, normalised (0 µM = 100) ([3]; 0.04 µM): 90.91 and 75.47 and 93.65 and 80.33 and 105.797 and 88.4058
- Ext Data Fig 6e dose response, normalised (0 µM = 100) ([3]; 0.08 µM): 79.22 and 86.79 and 63.49 and 63.93 and 86.9565 and 85.5072
- Ext Data Fig 6e dose response, normalised (0 µM = 100) ([3]; 5 µM): 0
- pEC50 ([3]; Severe acute respiratory syndrome coronavirus 2, Vero, 144 h, read-out: EC50 Replicate 1): 6.33
- pEC50 ([3]; Severe acute respiratory syndrome coronavirus 2, Vero, 144 h, read-out: EC50 Replicate 2): 6.48
- pEC50 ([3]; Severe acute respiratory syndrome coronavirus 2, Vero, 144 h, read-out: EC50 Replicate 3): 6.56
- pEC50 ([3]; Severe acute respiratory syndrome coronavirus 2, Vero, read-out: Antiviral EC50 (plaque assay)): 6.44
- pEC50 ([3]; Severe acute respiratory syndrome coronavirus 2, Vero, read-out: Antiviral EC50 (plaque assay) with Pgp inhibitor): 6.54
- pEC50 ([3]; read-out: EC50 Replicate 1): 6.43
- pEC50 ([3]; read-out: EC50 Replicate 2): 6.63
- pEC50 ([3]; read-out: EC50 Replicate 3): 6.60
- half-life (in vitro [4]): 144 min
- microsomal CLint (in vitro [4]): 9.7 µL/min/mg
- inhibition at 20 µM (CYP3A4/5 [5]; Time dependent CYP3A4/5 % inhibition at 20 µM): 25%
- pIC50 (CYP3A4/5 [5]; Time dependent CYP3A4/5 IC50 + NADPH): < 4.70
- pIC50 (CYP3A4/5 [5]; Time dependent CYP3A4/5 IC50 - NADPH): < 4.70
- inhibition at 0.545 µM (SARS-CoV-2 PLpro [6]; Conc 0.545 µM, read-out: SARS-CoV-2 PLpro, UbRh dose-response): 96.1%
- inhibition at 1.63 µM (SARS-CoV-2 PLpro [6]; Conc 1.63 µM, read-out: SARS-CoV-2 PLpro, UbRh dose-response): 97.9%
- inhibition at 4.9 µM (SARS-CoV-2 PLpro [6]; Conc 4.9 µM, read-out: SARS-CoV-2 PLpro, UbRh dose-response): 100%
- pIC50 (SARS-CoV-2 PLpro [6]; IC50 (UbRh) SARS-CoV-2 PLpro): 7.92
- inhibition at […] (SARS-CoV-2 PLpro [6]; read-out: SARS-CoV-2 PLpro, UbRh dose-response): 95.1% and 83.6%
- solubility kinetic (physchem [7]; pH 2, aqueous buffer): > 320 µM
- solubility kinetic (physchem [7]; pH 6.5, aqueous buffer): 160 to 320 µM (≈ 65.7 to 131 µg/mL)
- CYP2C8 % inhibition at 20 µM (CYP2C8 [8]): No measurable inhibition
- pIC50 (CYP2C9 [9]): < 4.70
- CYP2B6 % inhibition at 20 µM (CYP2B6 [10]): No measurable inhibition
- pIC50 (CYP1A2 [11]): < 4.70
- half-life (in vitro [12]): 139 min
- hepatocyte CLint (in vitro [12]): 10 µL/min/1e6 cells
- Log2 Fold change IL-10 (SARS-CoV-2 P21 [13]): -6.27
- Macrophages (SARS-CoV-2 P21 [13]): 10.22 and 12.4 and 14.7 and 14.8 and 13 and 14.2 and 15.1 and 11.5
- reduction of viral burdens, severe model (SARS-CoV-2 P21 [13]): more effective than PLT at reducing viral burdens
- weight loss, severe model (SARS-CoV-2 P21 [13]): rescuing mice from weight loss
- lung H&E histology, severe model (SARS-CoV-2 P21 [13]; 100 mg/kg): only mild inflammation
- lung IHC immune cell subsets, severe model (SARS-CoV-2 P21 [13]; 100 mg/kg): significantly reduce the numbers of macrophages and neutrophils
- lung cytokine and chemokine profiling, severe model (SARS-CoV-2 P21 [13]; 100 mg/kg): significantly reduce the levels of a wider range of pro-inflammatory cytokines and chemokines
- efficacy of pre-infection regimen versus treatment after infection (SARS-CoV-2 P21 [13]; 150 mg/kg): no more effective than initiating treatment after infection; also recorded: did not confer a significant benefit compared to post-infection treatment initiation
- lung H&E histology, severe model (SARS-CoV-2 P21 [13]; 150 mg/kg): minimal to unremarkable histological changes
- lung IHC immune cell subsets, severe model (SARS-CoV-2 P21 [13]; 150 mg/kg): also reduced the number of T cells
- pIC50 (CYP2B6 [14]): < 4.70
- pKd (SARS-CoV-2 PLpro [15]): 8.05
- Response (RU), report points (SARS-CoV-2 PLpro [15]): 23.2517 RU and 23.7185 RU and 25.1250 RU and 25.7597 RU and 25.8254 RU and 25.1414 RU
- inhibition at 20 µM (CYP2C9 [16]): 26%
- pIC50 (CYP2D6): 4.86
- fraction unbound (in vitro [17]): 0.153
- chromatographic logD (physchem [18]): 3.8
- gut inflammation (SARS-CoV-2 P21 [19]): could not be rescued
- lung H&E pathology at 1 month, PASC model (SARS-CoV-2 P21 [19]): reduced signs of haemorrhage and immune cell infiltrates
- neuroinflammation, microglial activation (IBA-1) (SARS-CoV-2 P21 [19]): significantly reduced
- right ventricle area (SARS-CoV-2 P21 [19]): no significant differences between vehicle-treated or antiviral-treated groups
- infection-induced weight loss, PASC model (SARS-CoV-2 P21 [19]; 150 mg/kg): effectively prevented infection-induced weight loss
- survival of acute phase, PASC model (SARS-CoV-2 P21 [19]; 150 mg/kg): all treated animals survived the acute phase of infection
- antiviral activity (lung viral burden), mild model (SARS-CoV-2 P2 strain): antiviral efficacy in inhibiting P2 virus replication, comparable to that observed with WEHI-P8; also recorded: cannot be further enhanced by concurrent ritonavir co-treatment
- antiviral efficacy (lung viral burden), mild model, treatment after infection (SARS-CoV-2 P2 strain; 150 mg/kg): did not change the antiviral efficacy
- half-life (in vitro [20]): 82.6 min
- hepatocyte CLint (in vitro [20]): 16.8 µL/min/1e6 cells
- pIC50 (CYP2C8 [21]): < 4.70
- pEC50 (SARS-CoV-2 PLpro [22]): 6.53
- NORT exploratory behaviour / preference for the novel object (SARS-CoV-2 P21 [23]): significantly higher preference for the novel object
- NORT impairment in females (SARS-CoV-2 P21 [23]): partially mitigated
- overall distance travelled, infected females (SARS-CoV-2 P21 [23]): rescued by WEHI-P8 treatment
- recognition index (SARS-CoV-2 P21 [23]): did not reveal significant sex- or drug dependent differences
- Recognition Index (females) (SARS-CoV-2 P21 [23]; 150 mg/kg): 0.5 and 0.9 and 0.57 and 0.7
- Recognition Index (males) (SARS-CoV-2 P21 [23]; 150 mg/kg): 0.8 and 0.529 and 0.7
- CYP2C19 % inhibition at 20 µM (CYP2C19 [24]): No measurable inhibition
- pIC50 (hERG): 5.27
- half-life (in vitro [25]): 41.5 min
- microsomal CLint (in vitro [25]): 33.4 µL/min/mg
- fraction unbound (in vitro [26]): 0.062
- inhibition at 20 µM (CYP3A4/5 [27]; pH 7.4, CYP3A4/5 % inhibition at 20 µM): 28%
- pIC50 (CYP3A4/5 [27]; pH 7.4, CYP3A4/5 IC50): < 4.70
- AUC(0-inf) (in vivo): ~108 µM·h
- AUC(0-t) (in vivo): 72.3 µM·h
- Cmax (in vivo): 7.07 µM
- Tmax (in vivo): 1 h
- half-life (in vivo; Apparent t1/2): 840 min
- CYP1A2 % inhibition at 20 µM (CYP1A2 [28]): No measurable inhibition
